Measurements as given in patent US4873253A, “Phenylalanine derivative and proteinase inhibitor” (Okamoto; Shosuke, priority 1987, dated 1989).
Where a name gives a salt, the structure may show the parent alone. Read-outs that look alike come from different tables or passages of the source.

What was measured:
human plasmin [1] = biological target: T1, human plasmin (Homo sapiens, UniProt P00747); assay: Antiplasmin activity: inhibition of S-2251 decomposition; assay type: biochemical; details: Table 2; substrate S-2251, pH 7.4, 37° C.
T1 sequence (P00747 581-810 limits assumed): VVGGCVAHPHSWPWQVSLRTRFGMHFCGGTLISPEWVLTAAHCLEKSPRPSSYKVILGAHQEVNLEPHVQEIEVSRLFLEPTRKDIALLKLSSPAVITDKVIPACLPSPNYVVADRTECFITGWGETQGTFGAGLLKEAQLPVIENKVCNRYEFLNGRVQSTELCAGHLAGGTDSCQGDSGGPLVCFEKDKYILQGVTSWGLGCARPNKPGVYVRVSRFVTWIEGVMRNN
T1 sequence (P00747 97-580 limits assumed): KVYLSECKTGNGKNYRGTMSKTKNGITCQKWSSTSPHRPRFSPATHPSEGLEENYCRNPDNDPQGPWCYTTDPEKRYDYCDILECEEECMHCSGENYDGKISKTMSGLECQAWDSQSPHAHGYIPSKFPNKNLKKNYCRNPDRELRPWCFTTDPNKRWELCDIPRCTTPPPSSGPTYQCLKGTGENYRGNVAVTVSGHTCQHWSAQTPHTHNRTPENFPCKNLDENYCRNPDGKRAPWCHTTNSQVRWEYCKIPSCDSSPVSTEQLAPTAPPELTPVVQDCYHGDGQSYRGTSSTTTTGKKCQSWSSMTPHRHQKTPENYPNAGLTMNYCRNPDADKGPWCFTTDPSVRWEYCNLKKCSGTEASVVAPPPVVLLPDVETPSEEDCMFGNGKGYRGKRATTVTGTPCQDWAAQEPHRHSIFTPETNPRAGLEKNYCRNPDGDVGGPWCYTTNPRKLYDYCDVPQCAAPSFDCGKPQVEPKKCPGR
Description: An inhibitor sample is dissolved in a 0.05 M Tris-hydrochloric acid buffer solution (pH=7.4) to make the total volume to 400 μl. […] Then, 50 μl of a 0.2 casein unit/ml human plasmin is added and the mixture is incubated at a temperature of 37° C. for 4 minutes. Thereafter, the reaction is stopped by adding 50 μl of 50% acetic acid.
Thus, the concentration I50 (μmol) of the inhibitor sample, at which the absorbance is one half (i.e., 1/2) of that obtained in the absence of the inhibitor, is determined.

human plasmin [2] = biological target: T1, human plasmin; assay: Antiplasmin activity: inhibition of fibrin decomposition; assay type: biochemical; details: Table 2, pH 7.4, 37° C., read-out: Plasmin Fibrin I50 (concentration doubling fibrin dissolution time)
Description: (i) Determination of inhibition activity for fibrin decomposition
An inhibitor sample is dissolved in a 0.18 M borate-physiological salt buffer solution (pH=7.4) to make the total volume to 600 μl. To this buffer solution, 200 μl of a 0.2% bovine fibrinogen, 100 μl of a 0.3 casein unit/ml human plasmin solution, and 100 μl of a 50 unit/ml bovine thrombin solution, all dissolved in the above-mentioned buffer, are added at a temperature of 37° C. in a constant temperature bath. Then, the dissolution time of the fibrin mass formed above is determined.

bovine thrombin [3] = biological target: T2, bovine thrombin (Bos taurus, UniProt P00735); assay: Antithrombin activity: inhibition of S-2238 decomposition; assay type: biochemical; details: Table 2; substrate S-2238, pH 8.3, 37° C.; read-out: Thrombin S-2238 I50
T2 construct: a 0.2 unit/ml bovine thrombin solution
Description: An inhibitor sample is dissolved in a 0.05 M Tris-hydrochloric acid buffer solution (pH=8.3) to make a total volume of 400 μl. […] Thus, the concentration I50 (μmol) of the inhibitor sample at which the absorbance is one half (i.e., 1/2) of that obtained in the absence of the inhibitor sample, is determined.

bovine thrombin [4] = biological target: T2, bovine thrombin; assay: Antithrombin activity: inhibition of fibrin formation (fibrinogen); assay type: biochemical; details: Table 2; bovine fibrinogen, pH 7.4, 37° C.; read-out: Thrombin Fibrinogen I50 (concentration doubling coagulation time)
Description: (i) Determination of inhibition activity against fibrin formation
An inhibitor sample is dissolved in a 0.18 M borate-physiological salt buffer solution (pH= 7.4) to make the total volume to 500 μl. […] Thus, a coagulation time is determined. The inhibitor concentration I50 (μmol), at which the coagulation time obtained in the absence of the inhibitor is extended twice, is determined.

bovine trypsin = biological target: T3, bovine trypsin (Bos taurus, UniProt P00760); assay: Antitrypsin activity: inhibition of S-2238 decomposition; assay type: biochemical
T3 sequence (P00760 24-246): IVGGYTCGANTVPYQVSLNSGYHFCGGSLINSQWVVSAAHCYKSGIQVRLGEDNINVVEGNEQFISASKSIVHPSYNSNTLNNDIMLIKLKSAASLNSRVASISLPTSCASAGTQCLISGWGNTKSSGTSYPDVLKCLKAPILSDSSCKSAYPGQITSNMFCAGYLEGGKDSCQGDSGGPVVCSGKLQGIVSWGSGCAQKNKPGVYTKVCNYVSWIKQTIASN
Description: Determination of inhibition activity against S-2238 decomposition
An inhibitor sample is dissolved in a 0.05 M Tris-imidazole buffer solution (pH=8.1) and 125 μl of a 1 mM S-2238 solution is added to make the total volume to 1.20 ml. The mixture is incubated at a temperature of 37° C. for 5 minutes in a constant temperature bath. To this mixture, 0.05 ml of bovine trypsin is added and the absorbance, at 405 nm, of the p-nitroaniline formed per minute is determined at a temperature of 37° C. by using the so-called initial velocity method. Thus, the concentration I50 (μmol) of a inhibitor sample, at which the absorbance is one half (i.e., 1/2) of that obtained in the absence of the inhibitor sample, is determined.

human plasma kallikrein = human plasma kallikrein (Homo sapiens, UniProt P03952); assay: Anti-plasma kallikrein activity: inhibition of S-2302 decomposition; assay type: biochemical
human plasma kallikrein, sequence (P03952 391-638 limits assumed): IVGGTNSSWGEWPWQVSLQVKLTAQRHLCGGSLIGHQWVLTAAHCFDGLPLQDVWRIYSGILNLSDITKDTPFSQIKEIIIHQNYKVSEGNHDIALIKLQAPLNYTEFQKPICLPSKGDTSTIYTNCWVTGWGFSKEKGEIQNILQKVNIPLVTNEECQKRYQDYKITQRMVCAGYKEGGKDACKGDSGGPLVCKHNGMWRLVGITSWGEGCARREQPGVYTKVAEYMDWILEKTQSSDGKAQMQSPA
human plasma kallikrein, sequence (P03952 20-390 limits assumed): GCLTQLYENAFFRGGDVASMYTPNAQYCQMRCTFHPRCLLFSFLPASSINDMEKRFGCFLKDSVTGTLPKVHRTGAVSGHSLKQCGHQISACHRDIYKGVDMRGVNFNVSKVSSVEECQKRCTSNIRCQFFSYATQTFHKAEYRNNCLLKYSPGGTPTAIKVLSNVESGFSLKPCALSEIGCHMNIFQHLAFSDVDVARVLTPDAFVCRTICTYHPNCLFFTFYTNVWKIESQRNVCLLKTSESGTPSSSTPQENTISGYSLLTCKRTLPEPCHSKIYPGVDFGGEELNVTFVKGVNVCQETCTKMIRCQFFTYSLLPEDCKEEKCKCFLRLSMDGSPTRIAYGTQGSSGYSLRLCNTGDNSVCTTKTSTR
Description: Determination of inhibition activity for S-2302 decomposition
(§1) An inhibitor sample is dissolved in a 0.05 M Tris-hydrochloric acid buffer solution (pH=7.8) to make the total volume to 400 μl. To this solution, 50 μl of a 2 mM S-2302 solution is added and the mixture is incubated at a temperature of 37° C. for 5 minutes in a constant temperature bath. Then, 50 μl of a 0.12 unit/ml human plasma kallikrein is added and the mixture is incubated at a temperature of 37° C. for 5 minutes. Thereafter, 50 μl of 50% acetic acid is added to terminate the reaction. The absorbance of the p-nitroaniline formed in the reaction mixture is measured at 405 nm. Thus, the concentration I50 (μmol) of the inhibitor sample, at which the absorbance is one half (i.e., 1/2) of that obtained in the absence of the inhibitor sample, is determined.

human urokinase = human urokinase (Homo sapiens, UniProt P00749); assay: biochemical
Description: Determination of inhibition activity for S-2444 decomposition
as §1, with “solution (pH=8.8)” for “solution (pH=7.8)”, “a 1” for “a 2”, “mM S-2444” for “mM S-2302”, “a 500” for “a 0.12”, “human urokinase” for “human plasma kallikrein”

[5] = background statement; cited from earlier work
[6] = background statement; cited from earlier work; remark: listed apart in the source
[7] = background statement; cited from earlier work; remark: listed apart in the source
[8] = background statement; cited from earlier work; remark: listed apart in the source
[9] = Table 2, substrate S-2238, pH 8.1, 37° C., read-out: Trypsin S-2238 I50
[10] = Table 2, substrate S-2302, pH 7.8, 37° C., read-out: Plasma Kallikrein S-2302 I50
[11] = Table 2, substrate S-2444, pH 8.8, 37° C., read-out: Urokinase S-2444 I50

IC50 (human plasmin [1]) [µM]	IC50 (human plasmin [2]) [µM]	IC50 (bovine thrombin [3]) [µM]	IC50 (bovine thrombin [4]) [µM]	IC50 (bovine trypsin; [9]) [µM]	IC50 (human plasma kallikrein; [10]) [µM]	IC50 (human urokinase; [11]) [µM]	Compound	IC50 (bovine trypsin) [µM]	IC50 (human plasma kallikrein) [µM]	IC50 (human urokinase) [µM]	half life in vivo [5]	hypotensive action [6]	LD50 value [7]	side effects when administered to humans [8]
19	14	> 100	> 100	2.3	0.38	110	CC(=O)c1ccc(NC(=O)C(Cc2cccc(Oc3ccccc3)c2)NC(=O)[C@H]2CC[C@H](CN)CC2)cc1 (mixture of isomers) [Compound 2, N-(trans-4-aminomethylcyclohexylcarbonyl)-3-phenoxy-DL-phenylalanine 4-acetylanilide hydrochloride]							
65	24	> 100	> 400	8.8	0.83	87	NC[C@H]1CC[C@H](C(=O)NC(Cc2cccc(Oc3ccccc3)c2)C(=O)Nc2ccncc2)CC1 (mixture of isomers) [Compound 8, N-(trans-4-aminomethylcyclohexylcarbonyl)-3-phenoxy-DL-phenylalanine 4-pyridylamide dihydrochloride]							
							N=C(N)c1ccc2cc(OC(=O)c3ccc(N=C(N)N)cc3)ccc2c1 [FUT-175, reference compound]	0.27	0.076	0.013	short	large	small	
							Aprotinin							side effects such as allergic reactions
